Assay results: PMC10902354, “Deficiency in PHD2-mediated hydroxylation of HIF2α underlies Pacak-Zhuang syndrome” (Communications Biology, 2024)

System: hypoxia-responsive element (HRE) reporter, HEK293A cells
Test: Dual-luciferase reporter assay of HIF2α transcriptional activity (VEGFA-HRE) in HEK293A cells
Format: cell-based
Settings: for HIF2α transcriptional activity, Firefly(RLU)/Renilla(RLU) (Normalized To WT Mean): Fig. 6a, normal oxygenated conditions; for HIF2α transcriptional activity, Firefly(RLU)/Renilla(RLU) (Normalized to WT Mean): Fig. 6b; for HIF2α transcriptional activity, Firefly(RLU)/Renilla(RLU) (Normalized to WT Mean) / HRE-driven transcriptional activity (in words): normoxic conditions; for HRE-driven transcriptional activity (in words): relative to HIF2α WT or other mutant
From the text: The following previously described plasmids were used in this study: pcDNA3-HA-VHL30[28] and pET-46-HIS6-PHD2[4]. pGL3-VEGFA-HRE was generated by amplifying nucleotides 1271-1797 of human VEGFA CDS (AH001553.2) using primers introducing 5’ KpnI and 3’ XhoI sites; digested PCR products were subcloned into pGL3-Basic (Promega) cut with KpnI and XhoI. pRL-SV40 was obtained from Promega. pcDNA3-HA-HIF2α has been previously described. Class 1 (D539N, A530V, P531A, Y532C) and Class 2 (M535T, G537R, P534R, Y532H) HIF2α mutants, as well as mutant P405A, were generated using QuikChange site-directed mutagenesis (Agilent) and confirmed by DNA sequencing. pcDNA3-HA-HIF2α -P405A/P531A was obtained from Addgene (Addgene plasmid # 18956)[29]. The α-HA tag antibody was obtained from Cell Signaling (C29F4). HIFα-CODD peptides were custom synthesized by Genscript and supplied at ≥ 95% purity. All synthesized peptides were C-terminally amidated, peptides used for MST binding studies and crystallography were N-terminally acetylated and peptides used for the indirect hydroxylation assays were N-terminally biotinylated. For crystallography and MST experiments peptides were dissolved directly into 50 mM Tris pH 8.0 buffer and for indirect hydroxylation assays N-terminally biotinylated peptides were initially dissolved in DMSO to create stock solutions and further diluted into aqueous buffers for immobilization on streptavidin agarose beads. The sequences of each peptide can be found in Supplementary Table 1.
HEK293A cells were maintained in DMEM (Wisent #319-015) supplemented with 10% (v/v) Fetal Bovine Serum (FBS, Wisent #098-150) in a humidified atmosphere at 37 °C and 5% CO2. Transfection complexes containing 2 μg of total DNA (0.8 ug pcDNA3-HA, 0.9 μg pGL3-VEGFa-HRE, 0.1 μg pRL-SV40, and 0.2 μg of either pcDNA3-HA-HIF2α-WT or mutant) and 8 ug Polyethyleneimine pH 7.2 (Polysciences, Cat #23966) in 400 μl OptiMEM™ Reduced Serum Medium (Gibco #31985070) were incubated for 15 min at room temperature, then were added to 5 × 10^5 HEK293A cells (diluted in 400 μl OptiMEM™) and incubated for an additional 5 min. Mixture was plated in six-well plates containing 2 ml complete medium and incubated at 37 °C, 5% CO2 for 24 h. Firefly luciferase and Renilla luciferase activity were measured with the Dual-Luciferase Reporter Assay System (Promega #E1960) according to the manufacturer’s instructions. Measurements (1 s) were recorded using a Varioskan Lux microplate reader (Thermo Fisher Scientific). For each sample, firefly RLU values were divided by corresponding Renilla RLU values.

Row | Substance | HIF2α transcriptional activity, Firefly(RLU)/Renilla(RLU) (Normalized To WT Mean) (Exp 1, 24 h) | HIF2α transcriptional activity, Firefly(RLU)/Renilla(RLU) (Normalized To WT Mean) (Exp 2, 24 h) | HIF2α transcriptional activity, Firefly(RLU)/Renilla(RLU) (Normalized To WT Mean) (Exp 3, 24 h) | HIF2α transcriptional activity, Firefly(RLU)/Renilla(RLU) (Normalized To WT Mean) (Exp 4, 24 h) | HIF2α transcriptional activity, Firefly(RLU)/Renilla(RLU) (Normalized To WT Mean) (Exp 5, 24 h) | HIF2α transcriptional activity, Firefly(RLU)/Renilla(RLU) (Normalized To WT Mean) (mean of Exp 1-5, 24 h) | HIF2α transcriptional activity, Firefly(RLU)/Renilla(RLU) (Normalized to WT Mean) (Exp 1, 24 h) | HIF2α transcriptional activity, Firefly(RLU)/Renilla(RLU) (Normalized to WT Mean) (Exp 2, 24 h) | HIF2α transcriptional activity, Firefly(RLU)/Renilla(RLU) (Normalized to WT Mean) (Exp3, 24 h) | HIF2α transcriptional activity, Firefly(RLU)/Renilla(RLU) (Normalized to WT Mean) (mean of Exp 1-3, 24 h) | HRE-driven transcriptional activity (in words) (listed as HIF2αP405A/P531A) | HRE-driven transcriptional activity (in words) (listed as P405A mutant) | HRE-driven transcriptional activity (in words) (listed as P405A mutation)
1 | HIF2a-A530V: Class 1 HIF2α mutant expressed from plasmid in HEK293A cells | 2.033 | 1.3534 | 1.897 | 3.054 | 1.561 | 1.98 |  |  |  |  |  |  | 
2 | HIF2a-D539N: Class 1 HIF2α mutant expressed from plasmid in HEK293A cells | 2.166 | 1.679 | 1.625 | 2.569 | 1.2135 | 1.85 |  |  |  |  |  |  | 
3 | HIF2a-G537R: Class 2 HIF2α mutant expressed from plasmid in HEK293A cells | 1.297 | 1.639 | 0.7606 | 1.668 | 0.917 | 1.256 |  |  |  |  |  |  | 
4 | HIF2a-M535T: Class 2 HIF2α mutant expressed from plasmid in HEK293A cells | 1.412 | 1.394 | 0.5168 | 1.444 | 0.9762 | 1.149 |  |  |  |  |  |  | 
5 | HIF2a-P405A/P531A: HIF2α NODD and CODD site double mutant (Addgene plasmid 18956) |  |  |  |  |  |  | 1.594 | 4.627 | 2.493 | 2.905 | indistinguishable transcriptional activity from HIF2αP531A single mutant |  | 
6 | HIF2a-P405A: HIF2α NODD site mutant expressed from plasmid in HEK293A cells |  |  |  |  |  |  | 0.6521 | 1.374 | 0.7703 | 0.9323 |  | transcriptional activity comparable to wild-type HIF2α | no significant increase in HIF2α transcriptional activation activity
7 | HIF2a-P531A: Class 1 HIF2α mutant (CODD site mutant) expressed from plasmid in HEK293A cells | 2.696 | 2.508 | 2.211 | 4.182 | 1.7617 | 2.672 | 2.003 | 3.782 | 2.069 | 2.618 |  |  | 
8 | HIF2a-P534R: Class 2 HIF2α mutant expressed from plasmid in HEK293A cells | 1.1133 | 1.547 | 1.102 | 1.425 | 0.8617 | 1.21 |  |  |  |  |  |  | 
9 | HIF2a-WT: HA-HIF2α WT expressed from pcDNA3-HA-HIF2α in HEK293A cells | 1.095 | 1.349 | 0.5003 | 1.339 | 0.7176 | 1 | 0.6881 | 1.449 | 0.8624 | 1 |  |  | 
10 | HIF2a-Y532C: Class 1 HIF2α mutant expressed from plasmid in HEK293A cells | 1.579 | 1.687 | 2.039 | 3.004 | 1.351 | 1.932 |  |  |  |  |  |  | 
11 | HIF2a-Y532H: Class 2 HIF2α mutant expressed from plasmid in HEK293A cells | 1.505 | 1.636 | 0.8256 | 1.673 | 0.9402 | 1.316 |  |  |  |  |  |  | 
